This note sets out measurements from patent publication US12110276B2 (Genentech, Inc., priority 2021, dated 2024).

In one test the target is TEAD4 (Homo sapiens (Human), UniProt Q15561). In words: TR-FRET lipid pocket probe competition assay (Lipid HTRF), TEAD4.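 Also: His-tagged TEAD4 with biotinylated lipid-pocket probe, read by Europium anti-His and XL665 streptavidin, where probe displacement lowers the TR-FRET signal, IC50 from a four-parameter fit.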 Type of test: binding. The note with it: 4 hours pre-incubation; read-out: Lipid HTRF TEAD4 IC50. Background: Time-resolved FRET reads energy transfer from a long-lived donor to a nearby acceptor.
Sequence of TEAD4 (Q15561 whole entry, species assumed): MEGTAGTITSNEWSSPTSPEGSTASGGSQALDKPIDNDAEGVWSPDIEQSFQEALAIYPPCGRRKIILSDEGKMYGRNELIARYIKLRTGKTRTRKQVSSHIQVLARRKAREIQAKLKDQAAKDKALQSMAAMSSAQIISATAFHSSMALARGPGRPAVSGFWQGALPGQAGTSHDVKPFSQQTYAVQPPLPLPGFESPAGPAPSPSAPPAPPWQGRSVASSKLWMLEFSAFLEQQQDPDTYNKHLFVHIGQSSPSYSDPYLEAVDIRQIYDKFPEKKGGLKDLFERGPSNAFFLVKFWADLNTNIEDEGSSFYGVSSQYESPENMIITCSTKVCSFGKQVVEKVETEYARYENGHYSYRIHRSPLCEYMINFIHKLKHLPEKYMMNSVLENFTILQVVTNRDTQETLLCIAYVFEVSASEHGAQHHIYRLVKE
For the next test, the target named is TEAD1 (Homo sapiens (Human), UniProt P28347). In words: TR-FRET lipid pocket probe competition assay (Lipid HTRF), TEAD1.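 Also: His-tagged TEAD1 with biotinylated probe, detected via Europium anti-His and XL665 streptavidin, probe displacement lowers TR-FRET signal, IC50 from four-parameter nonlinear fit.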 Type of test: binding. The note with it: 4 hours pre-incubation; read-out: Lipid HTRF TEAD1 IC50.
Sequence of TEAD1 (P28347 whole entry, species assumed): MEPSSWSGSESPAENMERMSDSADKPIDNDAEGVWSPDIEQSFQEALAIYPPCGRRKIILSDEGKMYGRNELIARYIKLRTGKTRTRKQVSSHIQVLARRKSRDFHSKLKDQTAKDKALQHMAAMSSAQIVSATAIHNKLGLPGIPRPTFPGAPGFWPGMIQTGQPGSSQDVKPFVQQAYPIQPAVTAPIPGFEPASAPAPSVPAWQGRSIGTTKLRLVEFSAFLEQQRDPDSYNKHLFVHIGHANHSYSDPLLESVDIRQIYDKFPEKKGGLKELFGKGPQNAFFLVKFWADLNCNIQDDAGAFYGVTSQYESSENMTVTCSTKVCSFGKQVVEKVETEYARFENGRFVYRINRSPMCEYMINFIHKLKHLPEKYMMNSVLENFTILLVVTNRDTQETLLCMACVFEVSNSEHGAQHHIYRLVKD
The next test deals with TEAD2 (Homo sapiens (Human), UniProt Q15562).
Sequence of TEAD2 (Q15562 whole entry, species assumed): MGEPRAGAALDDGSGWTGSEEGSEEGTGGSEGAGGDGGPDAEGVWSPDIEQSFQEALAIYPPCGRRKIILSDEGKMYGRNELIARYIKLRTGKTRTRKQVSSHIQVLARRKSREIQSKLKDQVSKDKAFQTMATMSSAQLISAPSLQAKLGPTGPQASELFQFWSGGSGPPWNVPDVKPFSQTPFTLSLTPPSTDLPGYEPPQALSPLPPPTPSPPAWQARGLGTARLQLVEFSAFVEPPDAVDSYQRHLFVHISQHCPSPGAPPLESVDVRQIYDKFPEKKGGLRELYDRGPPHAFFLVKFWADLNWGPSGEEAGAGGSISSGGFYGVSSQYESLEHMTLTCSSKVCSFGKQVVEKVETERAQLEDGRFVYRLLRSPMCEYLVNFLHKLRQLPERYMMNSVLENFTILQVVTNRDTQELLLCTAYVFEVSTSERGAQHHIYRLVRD
The target of a further test is TEAD3 (Homo sapiens (Human), UniProt Q99594). In words: TR-FRET lipid pocket probe competition assay (Lipid HTRF), TEAD3. Format: binding. The note with it: 4 hours pre-incubation; read-out: Lipid HTRF TEAD3 IC50.
Sequence of TEAD3 (Q99594 whole entry, species assumed): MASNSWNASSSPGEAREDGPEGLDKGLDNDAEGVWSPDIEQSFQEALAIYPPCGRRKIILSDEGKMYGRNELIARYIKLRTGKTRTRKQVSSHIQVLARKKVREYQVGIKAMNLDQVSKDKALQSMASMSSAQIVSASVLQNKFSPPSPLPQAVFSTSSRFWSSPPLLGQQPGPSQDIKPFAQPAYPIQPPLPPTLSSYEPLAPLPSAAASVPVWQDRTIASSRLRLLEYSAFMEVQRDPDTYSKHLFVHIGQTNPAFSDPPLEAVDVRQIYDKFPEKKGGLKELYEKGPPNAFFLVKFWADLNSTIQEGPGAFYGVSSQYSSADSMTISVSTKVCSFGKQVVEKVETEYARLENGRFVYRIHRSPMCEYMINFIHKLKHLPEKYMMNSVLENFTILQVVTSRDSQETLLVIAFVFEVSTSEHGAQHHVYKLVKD

One may read the IC50 as the midpoint of a concentration-inhibition curve.

Structures are written as SMILES.

Experimental for TEAD2: His-tagged TEAD proteins are pre-incubated with TEAD project compounds for 30 minutes or 4 hours at room temperature. Biotinylated lipid pocket probes are then added to the TEAD/Compound mixture and incubated for 60 minutes at room temperature. The lipid pocket probe competes with the test compound for the TEAD lipid pocket until equilibrium is reached. After 60 minutes, Europium labelled anti-His (Perkin Elmer #AD0110) and XL665 labelled streptavidin (CIS Bio 610SAXAC) are added to the TEAD/test compound/lipid pocket mixture and incubated for 30 minutes or 4 hours. TR-FRET values are then measured using an EnVision multi-label plate reader (Perkin Elmer Cat #2104-0010A.) If the lipid pocket probe binds to TEAD as expected, a TR-FRET signal results from the proximity of anti-His Eu and XL665. If a TEAD lipid pocket binder such as binds and displaces the lipid pocket probe, the disruption of the TEAD:probe interaction results in a decrease in TR-FRET signal. The potency of compounds as TEAD lipid pocket binders is determined by IC50 value generated using a non-linear 4 parameter curve fit.

In the case of `C=CC(=O)NCc1nn(-c2ccc(OC(F)(F)F)cc2)c2nccc([C@@H](C)O)c12` [Compound 62, (R)-N-((4-(1-Hydroxyethyl)-1-(4-(trifluoromethoxy)phenyl)-1H-pyrazolo[3,4-b]pyridin-3-yl)methyl)acrylamide], the IC50 on TEAD4 is 13 nM; at TEAD1 it was 58 nM; against TEAD2, 71 nM; at TEAD3, 860 nM.
`C=CC(=O)NCc1nn(-c2ccc(OC(F)(F)F)cc2)c2nccc([C@H](C)O)c12` [Compound 63, (S)-N-((4-(1-hydroxyethyl)-1-(4-(trifluoromethoxy)phenyl)-1H-pyrazolo[3,4-b]pyridin-3-yl)methyl)acrylamide]: the IC50 at TEAD4 came out at 78.5 nM; at TEAD1 it was 135 nM; against TEAD2, 124 nM; at TEAD3, 10500 nM.
As to `C=C(F)C(=O)N1CC(c2nn(-c3ccc(OC(F)(F)F)cc3)c3nccc(-n4ccnc4)c23)C1` [Compound 64, 1-(3-(4-(1H-Imidazol-1-yl)-1-(4-(trifluoromethoxy)phenyl)-1H-pyrazolo[3,4-b]pyridin-3-yl)azetidin-1-yl)-2-fluoroprop-2-en-1-one], the IC50 on TEAD4 was 21 nM; on TEAD1 it was 23 nM; against TEAD2, 170 nM; on TEAD3 it was 1300 nM.
The like results for `C[C@@H](O)/C=C/C(=O)N1CC(c2nn(-c3ccc(OC(F)(F)F)cc3)c3nccc(CO)c23)C1` [Compound 66, (R,E)-4-Hydroxy-1-(3-(4-(hydroxymethyl)-1-(4-(trifluoromethoxy)phenyl)-1H-pyrazolo[3,4-b]pyridin-3-yl)azetidin-1-yl)pent-2-en-1-one] were, in that order, 33 nM, 44 nM, 180 nM and 340 nM.
As for `C=CC(=O)NCc1nn(-c2ccc(OC(F)(F)F)cc2)c2nccc(O[C@H]3C[C@H](O)C3)c12` [Compound 67, N-((4-(trans-3-Hydroxycyclobutoxy)-1-(4-(trifluoromethoxy)phenyl)-1H-pyrazolo[3,4-b]pyridin-3-yl)methyl)acrylamide], the IC50 on TEAD4 was found to be 31 nM; on TEAD1 it was 100 nM; against TEAD2, 365 nM; at TEAD3 it was 50000 nM.
The like results for `C=C(F)C(=O)NCc1nn(-c2ccc(OC(F)(F)F)cc2)c2nccc(CO)c12` [Compound 68, 2-Fluoro-N-((4-(hydroxymethyl)-1-(4-(trifluoromethoxy)phenyl)-1H-pyrazolo[3,4-b]pyridin-3-yl)methyl)acrylamide] were, in that order, 140 nM, 71 nM, 550 nM and 980 nM.
In the case of `O=C(/C=C/CO)N1CC(c2nn(-c3ccc(OC(F)(F)F)cc3)c3nccc(N4CC(O)C4)c23)C1` [Compound 70, (E)-4-Hydroxy-1-(3-(4-(3-hydroxyazetidin-1-yl)-1-(4-(trifluoromethoxy)phenyl)-1H-pyrazolo[3,4-b]pyridin-3-yl)azetidin-1-yl)but-2-en-1-one], the IC50 on TEAD4 stood at 3.6 nM; on TEAD1, 17 nM; against TEAD2, 37 nM; at TEAD3 it was 140 nM.
The like results for `CC#CC(=O)N1CC(c2nn(-c3ccc(OC(F)(F)F)cc3)c3nccc([C@@H](O)CO)c23)C1` [Compound 71, (R)-1-(3-(4-(1,2-dihydroxyethyl)-1-(4-(trifluoromethoxy)phenyl)-1H-pyrazolo[3,4-b]pyridin-3-yl)azetidin-1-yl)but-2-yn-1-one] were, in that order, 16 nM, 32 nM, 5.3 nM and 43 nM.
Take `C=CC(=O)NCc1nn(-c2ccc(OC(F)(F)F)cc2)c2nccc(N3CC(C)(O)C3)c12` [Compound 74, N-((4-(3-hydroxy-3-methylazetidin-1-yl)-1-(4-(trifluoromethoxy)phenyl)-1H-pyrazolo[3,4-b]pyridin-3-yl)methyl)acrylamide]: the half-maximal inhibitory concentration (IC50) is 4.8 nM at TEAD4, 32 nM at TEAD1, 140 nM against TEAD2 and 4100 nM at TEAD3.
The like results for `C=C(F)C(=O)N1CC(c2nn(-c3ccc(OC(F)(F)F)cc3)c3nccc(N4CC(O)(CO)C4)c23)C1` [Compound 75, 2-Fluoro-1-(3-(4-(3-hydroxy-3-(hydroxymethyl)azetidin-1-yl)-1-(4-(trifluoromethoxy)phenyl)-1H-pyrazolo[3,4-b]pyridin-3-yl)azetidin-1-yl)prop-2-en-1-one] were, in that order, 5.2 nM, 45 nM, 19 nM and 1100 nM.
The like results for `C=C(F)C(=O)N1CC(c2nn(-c3ccc(OC(F)(F)F)cc3)c3ccnc(N4CC(O)C4)c23)C1` [Compound 78, 2-fluoro-1-(3-(4-(3-hydroxyazetidin-1-yl)-1-(4-(trifluoromethoxy)phenyl)-1H-pyrazolo[4,3-c]pyridin-3-yl)azetidin-1-yl)prop-2-en-1-one] were, in that order, 150 nM, 180 nM, 2800 nM and 13000 nM.
In the case of `N#Cc1ccnc2c1c(C1CN(C(=O)/C=C/CO)C1)nn2-c1ccc(OC(F)(F)F)cc1` [Compound 79], the IC50 at TEAD4 was 6.8 nM; at TEAD1, 19 nM; against TEAD2, 60 nM; at TEAD3, 20 nM.
Consider `C=C(F)C(=O)N1CC(c2nn(-c3ccc(OC(F)(F)F)cc3)c3nccc(C#N)c23)C1` [Compound 80, 3-(1-(2-fluoroacryloyl)azetidin-3-yl)-1-(4-(trifluoromethoxy)phenyl)-1H-pyrazolo[3,4-b]pyridine-4-carbonitrile], for which the 50% inhibitory concentration (IC50) at TEAD4 turned out to be 16 nM; on TEAD1, 18 nM; against TEAD2, 68 nM; at TEAD3 it was 29 nM.
For `C=C(F)C(=O)N1CC(c2nn(-c3ccc(OC(F)(F)F)cc3)c3nccc(N4CC(O)C4)c23)C1` [Compound 81, 2-Fluoro-1-(3-(4-(3-hydroxyazetidin-1-yl)-1-(4-(trifluoromethoxy)phenyl)-1H-pyrazolo[3,4-b]pyridin-3-yl)azetidin-1-yl)prop-2-en-1-one], the IC50 amounted to 11 nM on TEAD4, 32 nM on TEAD1, 24 nM against TEAD2 and 240 nM at TEAD3.
`C=C(F)C(=O)N1CC(c2nn(-c3ccc(OC(F)(F)F)cc3)c3nccc(N4CC[C@H](O)C4=O)c23)C1` [Compound 82, (S)-1-(3-(1-(2-fluoroacryloyl)azetidin-3-yl)-1-(4-(trifluoromethoxy)phenyl)-1H-pyrazolo[3,4-b]pyridin-4-yl)-3-hydroxypyrrolidin-2-one]: the IC50 at TEAD4 amounted to 4.8 nM; at TEAD1 it was 31 nM; at TEAD2, 390 nM; on TEAD3, 270 nM.
The like results for `C=CC(=O)NCc1nn(-c2ccc(OC(F)(F)F)cc2)c2nccc(N3CC(F)C3)c12` [Compound 84, N-((4-(3-Fluoroazetidin-1-yl)-1-(4-(trifluoromethoxy)phenyl)-1H-pyrazolo[3,4-b]pyridin-3-yl)methyl)acrylamide] were, in that order, 6.3 nM, 23 nM, 89 nM and 50000 nM.
